Source: US20070092442A1, “F-18-fluorinated phosphonium cation imaging agents and methods of synthesis” (priority 2005, published 2007)

Key:
C6 cells [1] = assay: C6 cell uptake of phosphonium cations determined by MALDI-TOF-MS; type: cell-based, rat; settings: 5 μM; for rank of uptake in C6 cells among the compounds tested: 25° C.
Method: A rat glioma C6 cell line was grown in Dulbecco's modified Eagle medium (DMEM, Invitrogen Life Technologies, Carlsbad, Calif.) high glucose (containing KCl 5.3 mmol/L and NaCl 110.34 mmol/L) plus 10% fetal bovine serum (FBS), and 1% penicillin-streptomycin at 37° C. in 5% CO2/95% air. After trypsinization, cells were washed with 0.01 M phosphate-buffered saline (PBS, pH=7.4) twice and suspended at 10×10^6 cells /mL in low K^+ Hepes buffer (135 mM NaCl/5 mM KCl/1.8 mM CaCl2/0.8 mM MgSO4/50 mM Hepes [4-(-2-hydroxyethyl)-1-piperazineethanesulfonic acid]/5.5 mM dextrose, pH 7.4). 50 μL (0.5×10^6) of C6 cells were incubated with 10 μL 100 μM stock phosphonium salts solution ([…], the structures of these phosphonium cations are shown in FIG. 1) and 140 μL Hepes buffer from 10 to 90 min at room temperature. The cells were centrifuged (250×g) for three minutes and washed twice with cold PBS buffer at specified times. Cell pellets were then lysed with 150 μL cold spectral grade water, following by freezing in dry ice. Right before the MALDI-TOF-MS analysis, the frozen cell solution was thawed and centrifuged at 12000×g for 5 min. 90 μL cell lysate and 10 μL 10 μM internal standard MeTPP were mixed together, and 1 μL solution was subjected to MALDI-TOF-MS analysis. Samples were prepared and analyzed in triplicate.

C6 cells [2] = assay: Mitochondrial membrane potential (MMP) dependent uptake of FTPP in C6 cells (CCCP, valinomycin, high K+ Hepes buffer); type: cell-based, rat
Method: The extent of MMP and cell membrane potential-dependent cellular uptake of FTPP was further assessed using the C6 cells treated with CCCP, valinomycin, and high K^+ Hepes buffer (5 mM NaCl/135 mM KCl/1.8 mM CaCl2/0.8 mM MgSO4/50 mM Hepes/5.5 mM dextrose, pH 7.4). Carbonylcyanide-m-chlorophenylhydrazone (CCCP), a known protonphore that selectively abolishes the MMP,^26 was dissolved in dimethyl sulfoxide (DMSO) and diluted to desired concentration with low K^+ Hepes buffer. K^+-ionophore valinomycin was dissolved in ethanol and also diluted with low K^+ buffer. Final concentrations of ethanol and DMSO were below 0.1%. Varying concentrations of CCCP and valinomycin were added to the 0.5×10^6 cells in low K^+ Hepes buffer 30 min prior to the start of the experiment. After 1 hr of incubation with 5 μM FTPP, the eppendorf vials were centrifuged, cell lysate were prepared as described above, and the cell uptakes of FTPP were determined using MALDI-TOF-MS. Five sets of 0.5×10^6 cells were also suspended in high K^+ Hepes buffer for 60 min, then exposed to 5 μM FTPP for 10-90 min in high K^+ Hepes buffer. Cell uptake of FTPP was measured by MALDI-TOF-MS. The viability and the integrity of the cells after treatment with inhibitors and high K^+ buffer were examined using Trypan blue.

[3] = MicroPET imaging, biodistribution and pharmacokinetic in normal nude mice; type: in vivo, mouse; settings: for heart uptake / liver uptake: tail vein, microPET ROI
Method: PET imaging of normal nude mice was performed on a microPET R4 rodent model scanner (Concorde Microsystems Inc, Knoxville, Tenn.). The mice were injected with about 10-20 μCi of [^18F]FTPP via the tail vein. At 30 min, 1 hr, 2 hr, and 4 hr post injection, the mice were anesthetized with 2% isoflurane and placed in the prone position and near the center of the filed of view of microPET. The 10-min static scans were obtained, and the images were reconstructed by a two-dimensional ordered subsets expectation maximum (OSEM) algorithm. Regions of interest (ROIs) were then drawn over the […] on decay-corrected whole-body coronal images. The counts per pixel per minute were obtained from the ROI and converted to counts per milliliter per minute by using a calibration constant. By assuming a tissue density of 1 g/mL, the ROIs were converted to counts/g/min. An image ROI-derived percentage ID per gram of tissue (% ID/g) was then determined by dividing counts per gram per minute with injected dose (ID).

Row | Compound | rank of uptake in C6 cells among the compounds tested (C6 cells [1]) | FTPP uptake (normalized) in presence of valinomycin (C6 cells [2]; 10 μM valinomycin, 5 μM FTPP, 1 hr, low K+ Hepes buffer) | FTPP uptake (normalized) in presence of CCCP (C6 cells [2]; 50 μM CCCP, 5 μM FTPP, 1 hr, low K+ Hepes buffer) | effect of CCCP or valinomycin on uptake (C6 cells [2]; CCCP 0.1-50 μM, valinomycin 0.1-10 μM, low K+ Hepes buffer) | decrease in uptake on depolarization of the plasma membrane (high K+ vs low K+ buffer) (C6 cells [2]; high K+ Hepes buffer, 90 min exposure time, 5 μM FTPP) [fold] | uptake in C6 cells as percentage of the TPP uptake (C6 cells [1]; glioma C6 cells in vitro, MALDI-TOF-MS) [%] | heart uptake ([3]; 30 minutes pi) [% ID/g] | liver uptake ([3]; 30 minutes pi) [% ID/g] | heart uptake ([3]; 4 h pi) [% ID/g] | liver uptake ([3]; 4 h pi) [% ID/g] | localization in microPET images ([3]; female nude mouse, 15 μCi) | route of clearance ([3]; female nude mouse, 15 μCi)
1 | [Br-].c1ccc([P+](c2ccccc2)(c2ccccc2)c2ccccc2)cc1 [TPP, tetraphenylphosphonium bromide, reference compound] | highest uptake | – | – | – | – | – | – | – | – | – | – | –
2 | Fc1ccc([P+](c2ccccc2)(c2ccccc2)c2ccccc2)cc1 [FTPP, 4-Fluorophenyltriphenyl phosphonium] | 2nd place | about 72.8±3.6% | about 27.3±2.3% | inhibited by CCCP or valinomycin in dose-dependent manners | 3.5 | 80 | – | – | – | – | – | –
3 | [18F]c1ccc([P+](c2ccccc2)(c2ccccc2)c2ccccc2)cc1 [[^18F]FTPP, (4-[^18F]fluorophenyl)triphenylphosphonium] | – | – | – | – | – | – | 5.59±0.93 | 7.39±0.36 | 3.89±0.29 | 2.79±0.59 | clearly localized in the heart | mainly cleared out through hepatobiliary system
